Source: patent US20260374773A1, “MULTI-CYCLIC IRAK AND FLT3 INHIBITING COMPOUNDS AND USES THEREOF” (CHILDREN'S HOSPITAL MEDICAL CENTER, priority 2022, published 2026)

What follows are compounds tested against T1, FLT3 R834Q (Homo sapiens, UniProt P36888, R834Q) (assay: DiscoverX KINOMEscan active site-directed competition binding, FLT3 R834Q). Settings: Table 13; no ATP.
T1 sequence (P36888 27-993 R834Q): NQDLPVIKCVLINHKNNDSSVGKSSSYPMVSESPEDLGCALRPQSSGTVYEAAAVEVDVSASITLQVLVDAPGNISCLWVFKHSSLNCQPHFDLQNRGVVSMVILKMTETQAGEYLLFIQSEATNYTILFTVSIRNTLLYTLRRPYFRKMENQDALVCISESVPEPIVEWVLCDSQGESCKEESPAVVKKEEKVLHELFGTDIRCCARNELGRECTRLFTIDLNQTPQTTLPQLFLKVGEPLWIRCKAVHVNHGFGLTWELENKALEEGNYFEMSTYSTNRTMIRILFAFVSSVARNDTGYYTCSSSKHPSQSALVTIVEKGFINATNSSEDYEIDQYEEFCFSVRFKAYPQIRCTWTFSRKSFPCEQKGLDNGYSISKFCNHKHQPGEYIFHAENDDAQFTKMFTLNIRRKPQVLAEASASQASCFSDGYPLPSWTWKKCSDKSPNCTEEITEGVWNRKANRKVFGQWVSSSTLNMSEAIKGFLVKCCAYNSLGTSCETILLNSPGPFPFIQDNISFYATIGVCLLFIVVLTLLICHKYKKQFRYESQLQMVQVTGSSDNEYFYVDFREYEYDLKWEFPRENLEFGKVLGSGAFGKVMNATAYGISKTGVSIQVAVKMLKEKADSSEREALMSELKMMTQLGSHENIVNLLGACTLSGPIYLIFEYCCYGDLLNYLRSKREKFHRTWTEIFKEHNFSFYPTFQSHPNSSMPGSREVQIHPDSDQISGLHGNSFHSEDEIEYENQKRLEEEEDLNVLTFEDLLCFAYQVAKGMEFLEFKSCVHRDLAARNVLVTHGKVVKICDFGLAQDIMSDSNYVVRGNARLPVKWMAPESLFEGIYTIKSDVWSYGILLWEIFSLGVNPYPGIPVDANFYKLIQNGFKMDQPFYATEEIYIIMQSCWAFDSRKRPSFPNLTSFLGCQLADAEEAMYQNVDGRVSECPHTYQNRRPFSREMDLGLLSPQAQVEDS
Text: (§1) Kinase binding data were obtained for various exemplary compounds prepared according to Examples 1-8 using the DiscoverX KINOMEscan® active site-directed competition binding site-directed assay protocol described below. […] As a result, the data report thermodynamic interaction affinities (Kd values), rather than IC50 values that are dependent on ATP concentrations. The assay uses a DNA-tagged version of the protein kinase, and an immobilized ligand bound to a solid support. Compounds that directly or indirectly prevent kinase binding to the immobilized ligand reduce the amount of kinase captured on the solid support, which is detected using an ultra-sensitive qPCR method. Affinity constants reported from the assay have been reported to be independent of the immobilized ligand used that is coupled to the solid support (See supplemental information in Fabian, M. A. et. al., (2005) Nat. Biotechnol. 23, 329-336; Wodicka, L. M. et. al., (2010) Chem. Biol. 17, 1241-1249.)
Kinase-tagged T7 phage strains were prepared in an E. coli host derived from the BL21 strain. E. coli were grown to log-phase and infected with T7 phage and incubated with shaking at 32 °C until lysis. The lysates were centrifuged and filtered to remove cell debris. The remaining kinases were produced in HEK-293 cells and subsequently tagged with DNA for qPCR detection. Streptavidin-coated magnetic beads were treated with biotinylated small molecule ligands for 30 minutes at room temperature to generate affinity resins for kinase assays. The liganded beads were blocked with excess biotin and washed with blocking buffer (SeaBlock (Pierce), 1% BSA, 0.05% Tween 20, 1 mM DTT) to remove unbound ligand and to reduce non-specific binding. […] Test compounds were prepared as 111x stocks in 100% DMSO. Kds were determined using an 11-point 3-fold compound dilution series with three DMSO control points. All compounds for Kd measurements are distributed by acoustic transfer (non-contact dispensing) in 100% DMSO. The compounds were then diluted directly into the assays such that the final concentration of DMSO was 0.9%. All reactions were performed in polypropylene 384-well plates. Each was a final volume of 0.02 mL. The assay plates were incubated at room temperature with shaking for 1 hour and the affinity beads were washed with wash buffer (1×PBS, 0.05% Tween 20). The beads were then re-suspended in elution buffer (1×PBS, 0.05% Tween 20, 0.5 μM nonbiotinylated affinity ligand) and incubated at room temperature with shaking for 30 minutes. The kinase concentration in the eluates was measured by qPCR. Binding constants (Kds) were calculated with a standard dose-response curve using the Hill equation. The Hill Slope was set to −1. Curves were fitted using a non-linear least square fit with the Levenberg-Marquardt algorithm.
as §1, with “9-12” for “1-8”
Kinase-tagged T7 phage strains were prepared in an E. coli host derived from the BL21 strain. […]
`COc1cn2ncc(-c3nc(N[C@H]4CNCC[C@@H]4F)c(C#N)cc3F)c2nc1C1CC1` [Compound 7, 6-(5-cyclopropyl-6-methoxypyrazolo[1,5-a]pyrimidin-3-yl)-5-fluoro-2-(((3S,4S)-4-fluoropiperidin-3-yl)amino)nicotinonitrile] gave a Kd of under 0.17 nM. Work on `COc1cn2ncc(-c3nc(N[C@H]4CNCC[C@@H]4F)c(C#N)cc3F)c2nc1C(C)(C)O` [Compound 10, 5-fluoro-2-(((3S,4S)-4-fluoropiperidin-3-yl)amino)-6-(5-(2-hydroxypropan-2-yl)-6-methoxypyrazolo[1,5-a]pyrimidin-3-yl)nicotinonitrile] yielded a Kd of 2.2 nM. `COc1cn2ncc(-c3nc(N[C@H]4CNCC[C@@H]4F)c(F)cc3F)c2nc1C(C)(C)O` [Compound 13, 2-(3-(3,5-difluoro-6-(((3S,4S)-4-fluoropiperidin-3-yl)amino)pyridin-2-yl)-6-methoxypyrazolo[1,5-a]pyrimidin-5-yl)propan-2-ol] gave a Kd of 3.3 nM.

Same assay, conditions: Table 19; no ATP
`COc1cn2ncc(-c3nc(N[C@H]4CNCC[C@@H]4F)ncc3F)c2nc1C(C)(C)O` [Compound 6a, 2-(3-(5-fluoro-2-(((3S,4S)-4-fluoropiperidin-3-yl)amino)pyrimidin-4-yl)-6-methoxypyrazolo[1,5-a]pyrimidin-5-yl)propan-2-ol] gave a Kd of 3.8 nM. For `COc1cn2ncc(-c3ccnc(N[C@H]4CNCC[C@@H]4F)n3)c2nc1C1CC1` [Compound 7a, 4-(5-cyclopropyl-6-methoxypyrazolo[1,5-a]pyrimidin-3-yl)-N-((3S,4S)-4-fluoropiperidin-3-yl)pyrimidin-2-amine], the Kd was 0.43 nM. `COc1cn2ncc(-c3cncc(N[C@H]4CNCC[C@@H]4F)n3)c2nc1C1CC1` [Compound 12a, 6-(5-cyclopropyl-6-methoxypyrazolo[1,5-a]pyrimidin-3-yl)-N-((3S,4S)-4-fluoropiperidin-3-yl)pyrazin-2-amine] was tested, and the Kd was 0.35 nM. Work on `COc1cn2ncc(-c3nc(N[C@@H]4CCCNC4)ncc3F)c2nc1C1CC1` [Compound 14a, (R)-4-(5-cyclopropyl-6-methoxypyrazolo[1,5-a]pyrimidin-3-yl)-5-fluoro-N-(piperidin-3-yl)pyrimidin-2-amine] yielded a Kd of under 0.17 nM. `COc1cn2ncc(-c3nc(N[C@H]4CNCC[C@@H]4F)ncc3F)c2nc1C1CC1` [Compound 15a, 4-(5-cyclopropyl-6-methoxypyrazolo[1,5-a]pyrimidin-3-yl)-5-fluoro-N-((3S,4S)-4-fluoropiperidin-3-yl)pyrimidin-2-amine] gave a Kd of under 0.17 nM.
